Key:
SLC26A6 = target: T1, SLC26A6 (Homo sapiens, UniProt Q9BXS9); assay: SLC26A6 activity, YFP fluorescence in LN-215 cells; type: cell-based; conditions: FIG. 16
T1 construct: expressed in transfected cells
T1 sequence (Q9BXS9 1-759): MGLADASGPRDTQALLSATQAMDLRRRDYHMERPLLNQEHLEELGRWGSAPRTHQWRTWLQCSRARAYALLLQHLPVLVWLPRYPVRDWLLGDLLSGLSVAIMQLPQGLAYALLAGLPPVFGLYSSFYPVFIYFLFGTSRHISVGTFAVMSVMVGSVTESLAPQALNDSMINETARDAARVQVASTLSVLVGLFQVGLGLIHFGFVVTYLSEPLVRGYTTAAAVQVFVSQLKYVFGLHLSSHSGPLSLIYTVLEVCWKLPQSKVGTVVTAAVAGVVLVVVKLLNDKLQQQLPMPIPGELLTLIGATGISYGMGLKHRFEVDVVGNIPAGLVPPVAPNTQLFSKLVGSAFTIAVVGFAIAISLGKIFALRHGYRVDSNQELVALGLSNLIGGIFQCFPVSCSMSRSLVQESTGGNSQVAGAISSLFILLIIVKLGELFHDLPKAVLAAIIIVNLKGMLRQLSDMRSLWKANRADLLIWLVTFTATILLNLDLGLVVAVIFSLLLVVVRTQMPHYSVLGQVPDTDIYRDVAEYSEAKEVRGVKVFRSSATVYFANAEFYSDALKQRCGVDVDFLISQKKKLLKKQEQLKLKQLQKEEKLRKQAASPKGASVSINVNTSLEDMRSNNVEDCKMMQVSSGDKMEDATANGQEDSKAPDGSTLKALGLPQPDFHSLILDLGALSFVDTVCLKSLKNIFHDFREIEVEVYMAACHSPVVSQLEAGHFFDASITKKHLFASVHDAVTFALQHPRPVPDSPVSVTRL
Method: In the case of SLC26A3 and SLC26A6, each transporter protein and halide sensitive YFP were expressed in LN-215 cells to measure the activity of the transporter protein.
Other details were carried out in the same manner as Example 5.

human wild-type pendrin = target: T2, human wild-type pendrin (Homo sapiens, UniProt O43511); assay: Pendrin Cl−/SCN− exchange activity in human alveolar epithelial cells (hAEC) overexpressing pendrin; type: cell-based; conditions: 0.3 μM to 30 μM, read-out: IC50 of human wild-type pendrin-mediated Cl−/SCN− exchange activity
T2 construct: expressed in transfected cells; host or cells: human alveolar epithelial cells (hAEC) overexpressing pendrin
T2 sequence (O43511 1-780): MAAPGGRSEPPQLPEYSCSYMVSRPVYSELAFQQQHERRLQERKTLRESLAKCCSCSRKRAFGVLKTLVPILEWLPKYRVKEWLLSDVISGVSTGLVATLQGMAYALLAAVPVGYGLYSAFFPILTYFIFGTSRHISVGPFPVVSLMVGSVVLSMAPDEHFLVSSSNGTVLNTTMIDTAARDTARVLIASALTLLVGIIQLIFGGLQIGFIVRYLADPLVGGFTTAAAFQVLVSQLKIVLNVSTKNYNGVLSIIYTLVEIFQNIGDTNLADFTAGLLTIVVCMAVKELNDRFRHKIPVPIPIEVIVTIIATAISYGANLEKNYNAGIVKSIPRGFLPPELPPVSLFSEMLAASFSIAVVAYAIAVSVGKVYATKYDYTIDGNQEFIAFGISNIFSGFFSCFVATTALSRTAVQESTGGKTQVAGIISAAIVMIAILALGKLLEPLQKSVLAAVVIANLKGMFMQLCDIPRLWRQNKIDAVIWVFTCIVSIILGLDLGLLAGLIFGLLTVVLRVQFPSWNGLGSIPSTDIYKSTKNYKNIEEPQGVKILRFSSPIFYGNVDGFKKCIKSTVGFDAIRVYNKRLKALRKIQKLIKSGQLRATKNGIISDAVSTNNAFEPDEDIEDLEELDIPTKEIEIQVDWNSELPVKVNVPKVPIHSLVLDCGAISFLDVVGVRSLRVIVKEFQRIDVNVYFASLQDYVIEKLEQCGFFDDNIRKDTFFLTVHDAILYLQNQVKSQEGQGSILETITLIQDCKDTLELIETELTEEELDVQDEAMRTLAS
Method: In FIG. 13a, human alveolar epithelial cells (hAEC) overexpressing pendrin were treated with YPI-A4948 as a novel pendrin inhibitor from 0.3 μM to 30 μM, and the Cl^−/SCN^− exchange ability of SLC26A4 was measured by the change in YFP fluorescence when compared to before YPI-A4948 treatment. The IC50 of human wild-type pendrin-mediated Cl^−/SCN^− exchange activity was confirmed to be 0.9 μM.

[1] = test system: Adriamycin-induced heart failure mouse model; assay: Diuretic effect in Adriamycin-induced heart failure mouse model; type: in vivo, C57BL/6N mice; conditions: heart failure mice
Method: Wild-type male C57BL/6N mice aged 8 weeks and weighing 20-24 g were purchased from Orient Bio (Seongnam, South Korea). Cardiac ultrasound imaging was performed before administration of Adriamycin. […] Five weeks later, cardiac ultrasound imaging was performed to confirm whether heart failure had been induced.
A 100 mg/ml stock concentration of YPI-A4948 dissolved in DMSO was prepared to have final concentrations of 0.1 mg/kg/100 ul, 0.5 mg/kg/100 ul and 1 mg/kg/100 ul (1% DMSO+DW), respectively. Heart failure mice were placed in mouse metabolic cages, and water and food were restricted. Before administering YPI-A4948, the bladder of the mouse was stimulated, and YPI-A4948 was injected intraperitoneally alone for two times in total, once every 3 hours for 6 hours. In other groups, it was administered with furosemide at 0.5 mg/kg and 1 mg/kg, respectively, in order to confirm the co-administration effect with other diuretics. Urine was collected from each group of mice after 6 hours.

[2] = test system: LPS-induced lung injury mouse model; assay: LPS-induced lung injury mouse model with anion supply; type: in vivo, mice; conditions: 5 μg/kg i.v. once 6 h after LPS
Method: Specifically, lipid polysaccharide (LPS, 200 μg/head) dissolved in 50 μL PBS was injected intranasally, and 6 hours after LPS inhalation, YPI-A4948 was intravenously administered once at 5 μg/kg, and at the same time, OH^−, HCO3^−, and SCN^− anions were administered intranasally, respectively. The mice were euthanized 24 hours after LPS inhalation to remove the lungs. Then, lung tissue H&E staining was performed to observe the degree of lung injury, and bronchoalveolar lavage fluid (BALF) was extracted in the same manner as in Example 12, and cytopathology staining using BALF total cell count, BALF protein concentration level, and Diff-Quik Stain was performed. Data provided are mean±SEM (n=3-5 per group), scale bar is 50 μm for H&E staining and cytopathology staining imaged at 400×.

In the case of Cc1ccc2[nH]c(C(=O)O)c(CC(=O)N3CCN(c4c(C)cccc4Cl)CC3)c2c1 [YPI-A4948, 3-(2-(4-(2-Chloro-6-methylphenyl)piperazin-1-yl)-2-oxoethyl)-5-methyl-1H-indole-2-carboxylic acid], the “Effect on activity of SLC26A6” value (SLC26A6) is reported as “did not inhibit”, the IC50 (human wild-type pendrin) is reported as 900 nM and the “Diuretic effect, co-administered with furosemide” value ([1]; 0.5 mg/kg YPI-A4948 and 1.0 mg/kg furosemide) is reported as “additive effect”. The “Diuretic effect, administered alone” value ([1]; 1 mg/kg i.p. twice in 6 hours) was “showed a diuretic effect”, the Lung injury [2] was “reduced” and the “Lung injury improvement effect when OH−, HCO3−, SCN− anions are supplied intranasally” value [2] was “weakened only by SCN^−”.
